The record followed here is patent US8722676B2, “Bicyclic piperazine compounds” (Genentech, Inc., priority 2011, dated 2014).

The test system of the assay is production of CD69 by B lymphocytes in human whole blood activated with goat F(ab')2 anti-human IgM. Description: CD69 Whole Blood Assay (CD69 Hu Blood FACS). The format is cell-based. The note with it: anti-IgM stimulated, 20 hour incubation, CD69+ of CD20+ cells, Table 2. The source says:
A CD69 Whole Blood Assay can be conducted on Formula I compounds to determine the ability of compounds to inhibit the production of CD69 by B lymphocytes in human whole blood activated by crosslinking surface IgM with goat F(ab′)2 anti-human IgM (Example 907). CD69 is a type II C-type lectin involved in lymphocyte migration and cytokine secretion. CD69 expression represents one of the earliest available indicators of leukocyte activation and its rapid induction occurs through transcriptional activation (Vazquez et al (2009) Jour. of Immunology Published Oct. 19, 2009, doi:10.4049/jimmunol.0900839). Concentration-dependent inhibition of antigen receptor stimulation by selective Btk inhibitors induces cell surface expression of the lymphocyte activation marker CD69 (Honigberg et al (2010) Proc. Natl. Acad. Sci. 107(29):13075-13080). Thus, CD69 inhibition by selective Btk inhibitors may be correlated with therapeutic efficacy of certain B-cell disorders.
Human blood is obtained from healthy volunteers, with the following restrictions: 1 week drug-free, non-smokers. Blood (approximately 20 mls to test 8 compounds) is collected by venipuncture into Vacutainer® (Becton, Dickinson and Co.) tubes with sodium heparin.
Solutions of Formula I compounds at 10 mM in DMSO are diluted 1:10 in 100% DMSO, then are diluted by three-fold serial dilutions in 100% DMSO for a ten point dose-response curve. The compounds are further diluted 1:10 in PBS and then an aliquot of 5.5 μl of each compound is added in duplicate to a 2 ml 96-well plate; 5.5 μl of 10% DMSO in PBS is added as control and no-stimulus wells. Human whole blood—HWB (100 μl) is added to each well. After mixing the plates are incubated at 37° C., 5% CO2, 100% humidity for 30 minutes. Goat F(ab′)2 anti-human IgM (10 μl of a 500 μg/ml solution, 50 μg/ml final) is added to each well (except the no-stimulus wells) with mixing and the plates are incubated for an additional 20 hours. At the end of the 20 hour incubation, samples are incubated with fluorescent labeled antibodies for 30 minutes, at 37° C., 5% CO2, 100% humidity. Include induced control, unstained and single stains for compensation adjustments and initial voltage settings. Samples are then lysed with PharM Lyse™ (BD Biosciences Pharmingen) according to the manufacturer's instructions. Samples are then transferred to a 96 well plate suitable to be run on the BD Biosciences HTS 96 well system on the LSRII machine. Data acquired and Mean Fluorescence Intensity values were obtained using BD Biosciences DIVA Software. Results are initially analyzed by FACS analysis software (Flow Jo).
As for `O=C1c2cc3c(n2CCN1c1nccc(-c2cc(Nc4ccc(N5CCN(C6COC6)CC5)cn4)c4nc[nH]c4c2)c1CO)CCCC3` [Compound 118, 2-[3-(hydroxymethyl)-4-[7-[[5-[4-(oxetan-3-yl)piperazin-1-yl]-2-pyridyl]amino]-3H-benzimidazol-5-yl]-2-pyridyl]-3,4,6,7,8,9-hexahydropyrazino[1,2-a]indol-1-one], the CD69 Hu Blood FACS IC70 is 4300 nM. For the compound `O=C1c2sc3c(c2CCN1c1cc(F)cc(-c2nc(Nc4ccc(N5CCN(C6COC6)CC5)cc4)c4nc[nH]c4n2)c1CO)CCCC3` [Compound 119, 2-[5-fluoro-2-(hydroxymethyl)-3-[6-[4-[4-(oxetan-3-yl)piperazin-1-yl]anilino]-9H-purin-2-yl]phenyl]-3,4,5,6,7,8-hexahydrobenzothiopheno[2,3-c]pyridin-1-one], the CD69 Hu Blood FACS IC70 stood at 727 nM. For the compound `O=C1c2cc3n(c2CCN1c1cc(F)cc(-c2nc(Nc4ccc(N5CCN(C6COC6)CC5)cc4)c4nc[nH]c4n2)c1CO)CCCC3` [Compound 120, 2-[5-fluoro-2-(hydroxymethyl)-3-[6-[4-[4-(oxetan-3-yl)piperazin-1-yl]anilino]-9H-purin-2-yl]phenyl]-3,4,6,7,8,9-hexahydropyrido[3,4-b]indolizin-1-one], the CD69 Hu Blood FACS IC70 came out at 1900 nM. In the case of `O=C1c2cc3c(n2CCN1c1nccc(-c2cc(Nc4ccc(N5CCN(C6COC6)CC5)cn4)c4nccn4c2)c1CO)CCCC3` [Compound 121, 2-[3-(hydroxymethyl)-4-[8-[[5-[4-(oxetan-3-yl)piperazin-1-yl]-2-pyridyl]amino]imidazo[1,2-a]pyridin-6-yl]-2-pyridyl]-3,4,6,7,8,9-hexahydropyrazino[1,2-a]indol-1-one] it was 279 nM; in that of `O=C1c2cc3c(n2CCN1c1nccc(-c2cc(Nc4ccc(N5CCN(C6COC6)CC5)cn4)c4ncnn4c2)c1CO)CCCC3` [Compound 122, 2-[3-(hydroxymethyl)-4-[8-[[5-[4-(oxetan-3-yl)piperazin-1-yl]-2-pyridyl]amino]-[1,2,4]triazolo[1,5-a]pyridin-6-yl]-2-pyridyl]-3,4,6,7,8,9-hexahydropyrazino[1,2-a]indol-1-one], 208 nM.

Regarding `CC1(C)Cc2cc3n(c2C1)CCN(c1cc(F)cc(-c2nc(Nc4ccc(N5CCN(C6COC6)CC5)cc4)c4nc[nH]c4n2)c1CO)C3=O` [Compound 123, 3-[5-fluoro-2-(hydroxymethyl)-3-[6-[4-[4-(oxetan-3-yl)piperazin-1-yl]anilino]-9H-purin-2-yl]phenyl]-7,7-dimethyl-1,2,6,8-tetrahydrocyclopenta[3,4]pyrrolo[3,5-b]pyrazin-4-one], the CD69 Hu Blood FACS IC70 is 256 nM.

Consider `CN1CCn2nc(Nc3cc(-c4ccnc(N5CCn6c(cc7c6CCCC7)C5=O)c4CO)nn4ccnc34)cc2C1` [Compound 124, 2-[3-(hydroxymethyl)-4-[8-[(5-methyl-6,7-dihydro-4H-pyrazolo[1,5-a]pyrazin-2-yl)amino]imidazo[1,2-b]pyridazin-6-yl]-2-pyridyl]-3,4,6,7,8,9-hexahydropyrazino[1,2-a]indol-1-one], for which the CD69 Hu Blood FACS IC70 was 333 nM.
